Values joined by “and” are separate entries in the source; they are usually repeats but may differ in a detail not shown here. Identical values can stand only once. Non-standard residues stand in square brackets, D forms with d. pGlu = O=C1CC[C@@H](C(=O)O)N1
Assays:
[1] = system: peripheral blood mononuclear cells obtained from children; test: IFNγ ELISpot PBMC assay after oral wheat bread challenge (Examples 1-2); format: cell-based, human
Experimental: An oral wheat bread challenge was conducted in DQ2.5+ children and adolescents having Celiac disease. The age ranges were 3-5, 6-10 and 11-18 years of age. An ELISpot peripheral blood mononucleated cell (PBMC) assay was performed to measure the level of IFNγ released by the PBMCs after being contacted with peptide 1, peptide 2, peptide 3, or a combination thereof. The identities of peptides 1, 2, and 3 are shown below.
The values the rows starting from “Blank (SFU)” and ending at “Pept-1/2/3 (150)” are all spot forming unit (SFU) values. The values in the parentheses in the first column are the concentration of each peptide in micrograms that were added to the PBMCs (e.g., Pept-1 50=50 micrograms of Peptide 1, Pept-1/2/3 50=50 micrograms of each of Peptide 1, Peptide 2, and Peptide 3). Pept-1=Peptide 1, Pept-2=Peptide 2, Pept-3=Peptide 3, the amino acid identities of which are mentioned above. D-Gli=deamidated gliadin. WT-Gli=wild-type gliadin. D-Glut=deamidated gluten. WT-Glut=wild-type gluten.
IFNγ ELISpot responses in 9 older children (11-17 yo) and 6 younger children (3-10 yo) were stimulated by the mixture of peptides 1, 2, and 3 described in Example 1 (each peptide at a concentration of 25 ug/mL) or stimulated by deamidated gliadin (100 ug/mL) after 3-day wheat challenge (r2=0.8, p<0.0001). The ELISpot responses were similar using either the peptide mixture of the deamidated gliadin (FIG. 1).

[2] = system: PBMC (polyclonal gluten-specific T cells) of paediatric and adult CD patients; test: IFN-γ ELISpot of PBMC after 3 day oral wheat challenge (SFU, % of maximal peptide response, dominance scores, EC50; Examples 5-6); format: cell-based, human; conditions: for IFN-γ ELISpot response: after oral wheat challenge; for IFN-γ ELISpot responses Day 0 prior to vs Day 6 after wheat challenge: p<0.05, Kruskal Wallis

ELQPFPQPELPYPQPQ ([pGlu]LQPFPQPELPYPQPQ-NH2) [Peptide 1]
most active peptides in gliadin for children [1]: most active | SFU, IFNγ ELISpot ([1]; Subject B, 5.0 × 10^5 cells per well, 25 micrograms, listed as Pept-1): 4 SFU and 3 SFU | SFU, IFNγ ELISpot ([1]; Subject B, 5.0 × 10^5 cells per well, 100 micrograms, listed as Pept-1): 3 SFU and 2 SFU | SFU, IFNγ ELISpot ([1]; Subject C, 5.0 × 10^5 cells per well, 25 micrograms, listed as Pept-1): 10 SFU and 5 SFU | SFU, IFNγ ELISpot ([1]; Subject C, 5.0 × 10^5 cells per well, 50 micrograms, listed as Pept-1): 6 SFU and 5 SFU | SFU, IFNγ ELISpot ([1]; Subject D, 4.0 × 10^5 cells per well, 25 micrograms, listed as Pept-1): 28 SFU and 32 SFU | SFU, IFNγ ELISpot ([1]; Subject D, 4.0 × 10^5 cells per well, 50 micrograms, listed as Pept-1): 23 SFU and 31 SFU | SFU, IFNγ ELISpot ([1]; Subject D, 4.0 × 10^5 cells per well, 100 micrograms, listed as Pept-1): 32 SFU and 25 SFU | SFU, IFNγ ELISpot ([1]; Subject E, 5.0 × 10^5 cells per well, 25 micrograms, listed as Pept-1): 177 SFU and 139 SFU | SFU, IFNγ ELISpot ([1]; Subject E, 5.0 × 10^5 cells per well, 50 micrograms, listed as Pept-1): 160 SFU and 144 SFU | SFU, IFNγ ELISpot ([1]; Subject E, 5.0 × 10^5 cells per well, 100 micrograms, listed as Pept-1): 139 SFU and 153 SFU | SFU, IFNγ ELISpot ([1]; Subject F, 5.0 × 10^5 cells per well, 25 micrograms, listed as Pept-1): 151 SFU and 146 SFU | SFU, IFNγ ELISpot ([1]; Subject F, 5.0 × 10^5 cells per well, 50 micrograms, listed as Pept-1): 186 SFU and 147 SFU | SFU, IFNγ ELISpot ([1]; Subject F, 5.0 × 10^5 cells per well, 100 micrograms, listed as Pept-1): 166 SFU and 138 SFU | SFU, IFNγ ELISpot ([1]; Subject G, 4.0 × 10^5 cells per well, 25 micrograms, listed as Pept-1): 8 SFU and 14 SFU | SFU, IFNγ ELISpot ([1]; Subject G, 4.0 × 10^5 cells per well, 50 micrograms): 10 SFU | SFU, IFNγ ELISpot ([1]; Subject H, 3.5 × 10^5 cells per well, 25 micrograms, listed as Pept-1): 14 SFU and 13 SFU | SFU, IFNγ ELISpot ([1]; Subject H, 3.5 × 10^5 cells per well, 50 micrograms): 8 SFU | SFU, IFNγ ELISpot ([1]; Subject H, 3.5 × 10^5 cells per well, 100 micrograms, listed as Pept-1): 9 SFU and 8 SFU | SFU, IFNγ ELISpot ([1]; Subject I, 5.0 × 10^5 cells per well, 25 micrograms, listed as Pept-1): 6 SFU and 7 SFU | SFU, IFNγ ELISpot ([1]; Subject J, 5.0 × 10^5 cells per well, 25 micrograms, listed as Pept-1): 103 SFU and 109 SFU | SFU, IFNγ ELISpot ([1]; Subject J, 5.0 × 10^5 cells per well, 50 micrograms, listed as Pept-1): 107 SFU and 92 SFU | SFU, IFNγ ELISpot ([1]; Subject J, 5.0 × 10^5 cells per well, 100 micrograms, listed as Pept-1): 109 SFU and 111 SFU | SFU, IFNγ ELISpot ([1]; Subject K, 3.2 × 10^5 cells per well, 25 micrograms, listed as Pept-1): 33 SFU and 28 SFU | SFU, IFNγ ELISpot ([1]; Subject K, 3.2 × 10^5 cells per well, 50 micrograms, listed as Pept-1): 28 SFU and 20 SFU | SFU, IFNγ ELISpot ([1]; Subject K, 3.2 × 10^5 cells per well, 100 micrograms, listed as Pept-1): 24 SFU and 38 SFU | SFU, IFNγ ELISpot ([1]; Subject L, 3.5 × 10^5 cells per well, 25 micrograms, listed as Pept-1): 10 SFU and 9 SFU | SFU, IFNγ ELISpot ([1]; Subject L, 3.5 × 10^5 cells per well, 100 micrograms, listed as Pept-1): 14 SFU and 7 SFU | SFU, IFNγ ELISpot ([1]; Subject M, 2.3 × 10^5 cells per well, 25 micrograms, listed as Pept-1): 34 SFU and 18 SFU | SFU, IFNγ ELISpot ([1]; Subject M, 2.3 × 10^5 cells per well, 50 micrograms, listed as Pept-1): 32 SFU and 30 SFU | SFU, IFNγ ELISpot ([1]; Subject M, 2.3 × 10^5 cells per well, 100 micrograms, listed as Pept-1): 45 SFU and 40 SFU | SFU, IFNγ ELISpot ([1]; Subject N, 2.4 × 10^5 cells per well, 25 micrograms, listed as Pept-1): 4 SFU and 6 SFU | SFU, IFNγ ELISpot ([1]; Subject N, 2.4 × 10^5 cells per well, 100 micrograms, listed as Pept-1): 5 SFU and 3 SFU | SFU, IFNγ ELISpot ([1]; Subject P, 3.0 × 10^5 cells per well, 0.1 micrograms, listed as Pept-1): 16 SFU and 15 SFU | SFU, IFNγ ELISpot ([1]; Subject P, 3.0 × 10^5 cells per well, 0.5 micrograms, listed as Pept-1): 21 SFU and 24 SFU | SFU, IFNγ ELISpot ([1]; Subject P, 3.0 × 10^5 cells per well, 1 micrograms, listed as Pept-1): 49 SFU and 31 SFU | SFU, IFNγ ELISpot ([1]; Subject P, 3.0 × 10^5 cells per well, 2.5 micrograms, listed as Pept-1): 45 SFU | SFU, IFNγ ELISpot ([1]; Subject Q, 3.0 × 10^5 cells per well, 0.1 micrograms, listed as Pept-1): 12 SFU and 18 SFU | SFU, IFNγ ELISpot ([1]; Subject Q, 3.0 × 10^5 cells per well, 0.5 micrograms, listed as Pept-1): 34 SFU and 32 SFU | SFU, IFNγ ELISpot ([1]; Subject Q, 3.0 × 10^5 cells per well, 1 micrograms, listed as Pept-1): 45 SFU and 36 SFU | SFU, IFNγ ELISpot ([1]; Subject R, 3.0 × 10^5 cells per well, 0.1 micrograms, listed as Pept-1): 12 SFU and 16 SFU | SFU, IFNγ ELISpot ([1]; Subject R, 3.0 × 10^5 cells per well, 0.5 micrograms, listed as Pept-1): 21 SFU and 26 SFU | SFU, IFNγ ELISpot ([1]; Subject R, 3.0 × 10^5 cells per well, 1 micrograms, listed as Pept-1): 22 SFU and 21 SFU | SFU, IFNγ ELISpot ([1]; Subject S, 3.0 × 10^5 cells per well, 0.1 micrograms, listed as Pept-1): 2 SFU and 4 SFU | SFU, IFNγ ELISpot ([1]; Subject S, 3.0 × 10^5 cells per well, 0.5 micrograms, listed as Pept-1): 1 SFU and 2 SFU | SFU, IFNγ ELISpot ([1]; Subject S, 3.0 × 10^5 cells per well, 1 micrograms, listed as Pept-1): 1 SFU and 2 SFU | SFU, IFNγ ELISpot ([1]; Subject T, 3.0 × 10^5 cells per well, 0.1 micrograms, listed as Pept-1): 20 SFU and 18 SFU | SFU, IFNγ ELISpot ([1]; Subject T, 3.0 × 10^5 cells per well, 0.5 micrograms, listed as Pept-1): 34 SFU and 31 SFU | SFU, IFNγ ELISpot ([1]; Subject T, 3.0 × 10^5 cells per well, 1 micrograms, listed as Pept-1): 55 SFU and 60 SFU | SFU, IFNγ ELISpot ([1]; Subject U, 3.0 × 10^5 cells per well, 0.1 micrograms, listed as Pept-1): 6 SFU and 7 SFU | SFU, IFNγ ELISpot ([1]; Subject U, 3.0 × 10^5 cells per well, 0.5 micrograms, listed as Pept-1): 18 SFU and 20 SFU | SFU, IFNγ ELISpot ([1]; Subject U, 3.0 × 10^5 cells per well, 1 micrograms, listed as Pept-1): 33 SFU and 24 SFU | T cell response in PBMC samples from children after gluten challenge ([1]; general increase in SFU in each child, Tables 2-5): induce a T cell response

YEVIRSLVLRTLPN
IFN-γ ELISpot response ([2]; patient A, 11-17 yrs, cut-off 10 SFU): 20 SFU | Significant response as percentage of maximal peptide SFU ([2]; patient A, max peptide 20 SFU): + (>70% = +) | IFN-γ ELISpot response ([2]; patient E, H, 11-17 yrs, cut-off 10 SFU): 1 SFU | IFN-γ ELISpot response ([2]; patient F, 11-17 yrs, cut-off 10 SFU): 2 SFU | IFN-γ ELISpot response ([2]; patient G, 11-17 yrs, cut-off 10 SFU): 1 SFU | IFN-γ ELISpot response ([2]; patient H (HLA-DQ2.5 homozygote), 3-5yrs, cut-off 10 SFU): 0 SFU | IFN-γ ELISpot response ([2]; patient H, 11-17 yrs, cut-off 10 SFU): 3 SFU | IFN-γ ELISpot response ([2]; patient ID not given, 11-17 yrs, cut-off 10 SFU): 1 SFU | IFN-γ ELISpot response ([2]; patient N, 3-5yrs, cut-off 10 SFU): 2 SFU | IFN-γ ELISpot response ([2]; patient P, 11-17 yrs, cut-off 21.6 SFU): 49 SFU | Significant response as percentage of maximal peptide SFU ([2]; patient P, max peptide 64 SFU): + (>70% = +) | IFN-γ ELISpot response ([2]; patient Q, 11-17 yrs, cut-off 10 SFU): 2 SFU | IFN-γ ELISpot response ([2]; patient U, H, 11-17 yrs, cut-off 10 SFU): 3 SFU | IFN-γ ELISpot response ([2]; patient V, 6-10 yrs, cut-off 10 SFU): 3 SFU | Significant response as percentage of maximal peptide SFU ([2]; patient W, max peptide 30 SFU): + (>70% = +) | IFN-γ ELISpot response ([2]; patient Y, 6-10 yrs, cut-off 10 SFU): 1 SFU | IFN-γ ELISpot response ([2]; patient eleven, 6-10 yrs, cut-off 10 SFU): 1 SFU | IFN-γ ELISpot response ([2]; patient four, 3-5yrs, cut-off 10 SFU): 1 SFU | IFN-γ ELISpot response ([2]; patient seven, 6-10 yrs, cut-off 10.5 SFU): 10 SFU | IFN-γ ELISpot response ([2]; patient ten, 3-5yrs, cut-off 10 SFU): 3 SFU | IFN-γ ELISpot response ([2]; patient three, 6-10 yrs, cut-off 10.5 SFU): 4 SFU | IFN-γ ELISpot response ([2]; patient twelve, 11-17 yrs, cut-off 10 SFU): 0 SFU | IFN-γ ELISpot response ([2]; patient two, 3-5yrs, cut-off 10 SFU): 1 SFU

tetanus toxoid: positive control antigen (CSL, Australia) [reference compound]
IFN-γ ELISpot responses Day 0 prior to vs Day 6 after wheat challenge [2]: no difference | IFN-γ ELISpot responses Day 0 prior to vs Day 6 after wheat challenge ([2]; listed as Tetanus toxoid): did not differ
